Experimental findings from ChEMBL document CHEMBL6078646, “Target Ligand Separation and Identification of Isoforsythiaside as a Histone Lysine-Specific Demethylase 1 Covalent Inhibitor Against Breast Cancer Metastasis” (J Med Chem, 2024) are described below.

In data set [1] the target is T1, Lysine-specific histone demethylase 1A (Homo sapiens, UniProt O60341). In words: Inhibition of recombinant His-tagged LSD1 (157 to 852 residues) (unknown origin) expressed in Escherichia coli BL21 (DE3) cells using H3K4me2 peptide as substrate incubated for 30 mins by fluorescence microplate reader analysis.
A short description of data set [2]: Retention time of the compound by HPLC-MS/MS analysis. Type of data set: physicochemical.
Data set [3] concerns MDA-MB-231. Description: Upregulation of RBMS3 protein expression in human MDA-MB-231 cells at 16 uM by Western blotting analysis. Format: functional, cell-based. For orientation: Immunoblotting shows a protein as a band on a membrane.
Data set [4] has as its system MDA-MB-231. In words: Inhibition of Twist1 production in human MDA-MB-231 cells at 16 uM by Western blotting analysis. Format: functional, cell-based.
Data set [5] deals with MDA-MB-231. Description: Inhibition of MMP2 production in human MDA-MB-231 cells at 16 uM by Western blotting analysis. Format: functional, cell-based.
Data set [6] deals with MDA-MB-231. Description: Induction of LSD1 degradation in human MDA-MB-231 cells incubated for 12 hrs by Western blotting analysis. Format: cell-based.
Data set [7] deals with T1, Lysine-specific histone demethylase 1A. In words: Binding affinity to recombinant LSD1 (unknown origin) at S817 residue by LC-MS/MS analysis.
Data set [8] deals with MDA-MB-231. Description: Antimetastatic activity against human MDA-MB-231 cells expressing luciferase xenografted in female Balb/c nude mouse assessed as reduction in fluorescence intensity in lungs at 10 mg/kg, ip administered every 3 days and measured on day 15 by bioluminescence imaging analysis relative to control. Type of data set: functional. Also noted: scale not given: the % may be the effect or the level left. The conditions noted are these: time 15 day. Background: A xenograft is tissue or cells of one species grown in another, often human tumour cells in immunodeficient mice.

Data set [9] relates to MDA-MB-231. Description: Antimetastatic activity against human MDA-MB-231 cells expressing luciferase xenografted in female Balb/c nude mouse assessed as reduction in number of metastatic nodules in the lung at 10 mg/kg, ip administered every 3 days and measured after 30 days by H and E staining based histopathological analysis relative to control. Type of data set: functional. Also noted: scale not given: the % may be the effect or the level left. As to conditions: time 30 day.

The subject of data set [10] is MDA-MB-231. In words: Antimetastatic activity against human MDA-MB-231 cells expressing luciferase xenografted in female Balb/c nude mouse assessed as smaller metastatic nodules in lung at 10 mg/kg, ip administered every 3 days and measured after 30 days by H and E staining based analysis. As to conditions: time 30.0 day. Type of data set: functional, organism-based.

In data set [11] the test system is MDA-MB-231. In words: Antitumor activity against human MDA-MB-231 cells expressing luciferase xenografted in female Balb/c nude mouse assessed as increase in body weight at 10 mg/kg, ip administered every 3 days and measured after 33 days. Type of data set: functional, organism-based. As to conditions: time 33.0 day.
Data set [12] relates to MDA-MB-231. In words: Antimetastatic activity against human MDA-MB-231 cells expressing luciferase xenografted in female Balb/c nude mouse assessed as reduction in lung metastasis at 10 mg/kg, ip administered every 3 days and measured on day 30 by bioluminescence imaging analysis. Type of data set: functional, organism-based. As to conditions: time 30.0 day.

pIC50: −log10 of the molar value. Active and inactive are the calls of the source. No cut-off for these calls is given here. Residues, ends and D or L forms follow the SMILES beside them. *: point of attachment. Cbz = O=C(OCc1ccccc1)*

One may read the pIC50 as −log10 of the IC50, conventionally taken in molar units.

Turning to `COc1ccc([C@@H]2OC[C@H]3[C@@H]2CO[C@@H]3c2ccc(O[C@H]3O[C@H](CO)[C@@H](O)[C@H](O)[C@H]3O)c(OC)c2)cc1OC`, the negative-log IC50 (pIC50) in data set [1] is 5.26. The same compound returned a Retention_time in data set [2] of 40.6 min.

For `N[C@H]1CC[C@H](N[C@@H]2C[C@H]2c2ccccc2)CC1`, in data set [3], the AC30 entry was “Active”. For the same compound, the inhibition result in data set [4] and in data set [5] was “Active” each time.

Consider `CC(C)C[C@@H](C=O)NC(=O)[C@H](CC(C)C)NC(=O)[C@H](CC(C)C)NC(=O)OCc1ccccc1` (Cbz-Leu-Leu-Leu-aldehyde), for which, in [6], the outcome was inactive.

For the compound `C[C@@H]1O[C@H](OC[C@H]2O[C@@H](OCCc3ccc(O)c(O)c3)[C@H](O)[C@@H](OC(=O)CCc3ccc(O)c(O)c3)[C@@H]2O)[C@H](O)[C@H](O)[C@H]1O`, in data set [1], the inhibition result was “inactive”. Besides, in [7], the outcome was inactive.

In the case of `C[C@@H]1O[C@@H](OC[C@H]2O[C@@H](OCCc3ccc(O)c(O)c3)[C@H](O)[C@@H](O)[C@@H]2OC(=O)/C=C/c2ccc(O)c(O)c2)[C@H](O)[C@H](O)[C@H]1O` [FORSYTHIASIDE], in data set [1], the negative-log IC50 (pIC50) is 5.09. This compound also showed a Retention_time in data set [2] of 31.9 min.

On to `C[C@@H]1O[C@@H](O[C@@H]2[C@@H](O)[C@H](OCCc3ccc(O)c(O)c3)O[C@H](CO)[C@H]2OC(=O)/C=C/c2ccc(O)c(O)c2)[C@H](O)[C@H](O)[C@H]1O` [ACETOSIDE], for which, in data set [1], the pIC50 is 5.44. The compound also returned a Retention_time in [2] of 25.8 min.

With `CC(=O)O[C@H]1C(=O)[C@@]2(C)[C@H]([C@H](OC(=O)c3ccccc3)[C@]3(O)C[C@H](OC(=O)[C@H](O)[C@@H](NC(=O)c4ccccc4)c4ccccc4)C(C)=C1C3(C)C)[C@]1(OC(C)=O)CO[C@@H]1C[C@@H]2O` [PACLITAXEL], the negative-log IC50 (pIC50) in [1] is 7.53. The values for the Activity in data set [8], in data set [9] and in data set [11] were 89.6%, 55.5% and “Active; Slight Attenuation Of Body Weight Loss Observed”, respectively. For the same compound, the result in data set [10] and in data set [12] was Active.
